Experiments:
[1] = biological target: T1, α4β1 integrin (Homo sapiens, UniProt P05556+P13612); test: α4β1 Cell Capture Assay; assay type: cell-based; conditions: capture of α4β1 expressing Jurkat cells on VCAM-1 extracellular domain-coated plate
T1 construct: monitoring the capture of α4β1 expressing cells; endogenous in cells; host or cells: Jurkat
Experimental: The potency of inhibitors in preventing α4β1 integrin interaction with VCAM-1 was measured by monitoring the capture of α4β1 expressing cells to a recombinant VCAM-1 extracellular domain-coated plate.
384-well plates (Corning 3702) were coated with VCAM-1 extracellular domain by dispensing 20 μL of VCAM-1 at 0.5 μg/ml per well and incubating overnight at 4° C. The plates were then washed with PBS and blocked with 3% BSA for 2 hours before being washed again.
(§1) Jurkat cells were spun down and re-suspended in assay medium (DMEM+0.5% FBS+0.5 mM MnCl2) at a density of 0.5×10^6 cells/ml. The cells were then dispensed (60 μL/well) to a 384-well plate (Greiner 781280) that was previously spotted with 60 nL of test compound per well. The plates were incubated at 37° C. for 1 hour. 50 μL of cells were transferred to the blocked, VCAM-1-coated plates and incubated for 30 minutes at 37° C. 10 μl of 12% glutaraldehyde containing Hoechst 33342 (0.06 mg/mL) was added to the cells (2% glutaraldehyde and 0.01 mg/ml Hoechst 33342 final concentrations). The plates were incubated for 90 minutes at room temperature. The plates were then washed 3 times with 70 μL of PBS per well and imaged on a Cellomics ArrayScan instrument. The cells that were bound to the plate were counted and plotted against the compound concentration to determine the EC50 of the test compounds.

[2] = biological target: T2, α4β7 integrin (Homo sapiens, UniProt P13612+P26010); test: α4β7 Integrin Cell Capture Assay; assay type: cell-based; conditions: capture of α4β7 integrin expressing RPM18866 cells on MadCAM-1 extracellular domain-coated plate
T2 construct: monitoring the capture of α4β7 integrin expressing cells; endogenous in cells; host or cells: RPMI8866
T2 sequence (P13612 34-1032): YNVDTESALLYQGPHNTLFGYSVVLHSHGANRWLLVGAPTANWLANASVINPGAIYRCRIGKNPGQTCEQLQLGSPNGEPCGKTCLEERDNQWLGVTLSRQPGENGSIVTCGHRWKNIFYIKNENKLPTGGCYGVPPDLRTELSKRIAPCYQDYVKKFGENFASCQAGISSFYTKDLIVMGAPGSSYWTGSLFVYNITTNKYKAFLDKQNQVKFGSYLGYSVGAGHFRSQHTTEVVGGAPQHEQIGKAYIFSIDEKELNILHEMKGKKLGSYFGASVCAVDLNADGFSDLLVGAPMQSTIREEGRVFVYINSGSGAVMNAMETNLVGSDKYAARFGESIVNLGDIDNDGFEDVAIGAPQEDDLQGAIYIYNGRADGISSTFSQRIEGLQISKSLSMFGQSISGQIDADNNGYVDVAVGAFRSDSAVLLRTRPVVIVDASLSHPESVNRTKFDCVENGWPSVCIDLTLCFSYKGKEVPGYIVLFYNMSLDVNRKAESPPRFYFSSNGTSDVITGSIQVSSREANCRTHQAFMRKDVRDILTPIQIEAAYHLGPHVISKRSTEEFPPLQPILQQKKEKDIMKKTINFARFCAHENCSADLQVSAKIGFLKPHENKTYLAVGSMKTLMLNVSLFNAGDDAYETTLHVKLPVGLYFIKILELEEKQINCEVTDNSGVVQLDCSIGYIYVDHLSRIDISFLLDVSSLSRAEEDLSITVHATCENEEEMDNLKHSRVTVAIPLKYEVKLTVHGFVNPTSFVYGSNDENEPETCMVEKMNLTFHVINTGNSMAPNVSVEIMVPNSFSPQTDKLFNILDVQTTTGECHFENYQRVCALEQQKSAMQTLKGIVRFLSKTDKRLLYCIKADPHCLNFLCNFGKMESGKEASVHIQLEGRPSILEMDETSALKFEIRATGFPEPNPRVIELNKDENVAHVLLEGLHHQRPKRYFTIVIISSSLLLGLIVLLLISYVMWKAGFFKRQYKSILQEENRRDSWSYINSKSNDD
T2 sequence (P26010 20-798): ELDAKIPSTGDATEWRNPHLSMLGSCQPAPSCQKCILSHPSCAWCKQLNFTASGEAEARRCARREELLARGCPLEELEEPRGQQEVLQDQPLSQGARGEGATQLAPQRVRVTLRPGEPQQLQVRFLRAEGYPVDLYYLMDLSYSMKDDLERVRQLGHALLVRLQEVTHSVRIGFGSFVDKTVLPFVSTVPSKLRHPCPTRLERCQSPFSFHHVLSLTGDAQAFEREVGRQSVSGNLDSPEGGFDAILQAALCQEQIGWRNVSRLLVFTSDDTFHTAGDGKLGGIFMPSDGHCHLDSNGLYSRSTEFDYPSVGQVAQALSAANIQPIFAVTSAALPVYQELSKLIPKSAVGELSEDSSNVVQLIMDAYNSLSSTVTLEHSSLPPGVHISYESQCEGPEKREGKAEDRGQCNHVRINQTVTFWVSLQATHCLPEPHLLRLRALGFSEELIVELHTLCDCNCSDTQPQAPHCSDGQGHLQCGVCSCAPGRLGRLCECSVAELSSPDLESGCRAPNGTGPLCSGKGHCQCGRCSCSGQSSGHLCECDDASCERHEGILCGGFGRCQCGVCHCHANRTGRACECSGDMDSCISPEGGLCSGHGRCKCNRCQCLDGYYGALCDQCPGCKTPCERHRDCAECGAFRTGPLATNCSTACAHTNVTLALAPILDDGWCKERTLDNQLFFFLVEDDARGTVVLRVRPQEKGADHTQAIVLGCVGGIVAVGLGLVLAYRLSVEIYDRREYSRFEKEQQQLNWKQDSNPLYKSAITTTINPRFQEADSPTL
Experimental: The potency of inhibitors in preventing α4β7 integrin interaction with MadCAM-1 was measured by monitoring the capture of α4β7 integrin expressing cells on a recombinant MadCAM-1 extracellular domain-coated plate.
384-well plates (Corning 3702) were coated with MadCAM-1 extracellular domain by dispensing 20 μL of MAdCAM-1 at 1.0 μg/mL per well and incubating overnight at 4° C. The plates were then washed with PBS and blocked with 3% BSA for 2 hours before being washed again.
as §1, with “RPM18866” for “Jurkat”, “cells/mL.” for “cells/ml.”, “MadCAM-1-coated” for “VCAM-1-coated”, “μL” for “μl”, “mg/mL” for “mg/ml Hoechst 33342”

T1 sequence (P05556 21-798, one chain of several): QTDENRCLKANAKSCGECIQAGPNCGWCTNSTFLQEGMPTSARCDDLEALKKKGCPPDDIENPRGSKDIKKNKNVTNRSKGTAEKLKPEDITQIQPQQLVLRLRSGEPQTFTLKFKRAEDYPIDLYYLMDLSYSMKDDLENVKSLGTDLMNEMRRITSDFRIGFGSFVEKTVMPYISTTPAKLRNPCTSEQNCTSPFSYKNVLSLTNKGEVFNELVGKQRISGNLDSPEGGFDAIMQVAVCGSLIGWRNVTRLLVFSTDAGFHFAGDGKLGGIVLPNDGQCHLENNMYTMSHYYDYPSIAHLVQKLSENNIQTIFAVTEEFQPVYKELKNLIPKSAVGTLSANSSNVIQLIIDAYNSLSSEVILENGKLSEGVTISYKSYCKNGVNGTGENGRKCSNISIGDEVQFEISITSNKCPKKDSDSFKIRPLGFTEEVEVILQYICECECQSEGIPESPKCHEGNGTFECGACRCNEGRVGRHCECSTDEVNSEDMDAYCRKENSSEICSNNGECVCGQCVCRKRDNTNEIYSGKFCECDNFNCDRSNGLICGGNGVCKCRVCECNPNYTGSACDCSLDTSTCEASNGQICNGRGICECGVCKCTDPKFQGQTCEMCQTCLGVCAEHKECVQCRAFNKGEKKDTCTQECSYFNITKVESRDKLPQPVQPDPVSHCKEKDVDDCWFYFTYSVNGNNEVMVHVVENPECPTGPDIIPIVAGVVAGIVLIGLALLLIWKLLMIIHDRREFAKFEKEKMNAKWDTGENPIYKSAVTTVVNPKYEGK

| Structure (SMILES) | EC50 ([1]; Table 2) [nM] | EC50 ([2]; Table 2) [nM] | EC50 ([1]; Table 1) [nM] | EC50 ([2]; Table 1) [nM] |
| --- | --- | --- | --- | --- |
| CC[C@@H](Nc1cc(F)c(C(=O)N[C@@H](Cc2ccc(-c3c(C(F)(F)F)cc(C)n(C)c3=O)cc2)C(=O)O)c(F)c1)C(F)(F)F [Example 1, (S)-2-(2,6-difluoro-4-(((R)-1,1,1-trifluorobutan-2-yl)amino)benzamido)-3-(4-(1,6-dimethyl-2-oxo-4-(trifluoromethyl)-1,2-dihydropyridin-3-yl)phenyl)propanoic acid] |  |  | 10.3 | 1.4 |
| CC[C@@H](Nc1cc(F)c(C(=O)N[C@@H](Cc2ccc(-c3c(C(F)(F)F)cc(=O)n(C)c3C)cc2)C(=O)O)c(F)c1)C(F)(F)F [Example 2, (S)-2-(2,6-difluoro-4-(((R)-1,1,1-trifluorobutan-2-yl)amino)benzamido)-3-(4-(1,2-dimethyl-6-oxo-4-(trifluoromethyl)-1,6-dihydropyridin-3-yl)phenyl)propanoic acid] |  |  | 905 | 13.6 |
| Cc1cc(C(F)(F)F)c(-c2ccc(C[C@H](NC(=O)c3c(F)cc(N4CCOC[C@@H]4C(F)(F)F)cc3F)C(=O)O)cc2)c(=O)n1C [Example 3, (S)-2-(2,6-difluoro-4-((R)-3-(trifluoromethyl)morpholino)benzamido)-3-(4-(1,6-dimethyl-2-oxo-4-(trifluoromethyl)-1,2-dihydropyridin-3-yl)phenyl)propanoic acid] |  |  | 18.5 | 0.5 |
| Cc1c(C(F)(F)F)cn(C)c(=O)c1-c1ccc(C[C@H](NC(=O)c2c(F)cc(N3CCOC[C@@H]3C(F)(F)F)cc2F)C(=O)O)cc1 [Example 4, (S)-2-(2,6-difluoro-4-((R)-3-(trifluoromethyl)morpholino)benzamido)-3-(4-(1,4-dimethyl-2-oxo-5-(trifluoromethyl)-1,2-dihydropyridin-3-yl)phenyl)propanoic acid] |  |  | 63.7 | 1.2 |
| Cc1cc(C[C@H](NC(=O)c2c(C)cc(N3CCOC[C@@H]3C(F)(F)F)cc2F)C(=O)O)ccc1-c1c(C(F)(F)F)cc(C)n(C)c1=O [Example 5, (S)-3-(4-(1,6-dimethyl-2-oxo-4-(trifluoromethyl)-1,2-dihydropyridin-3-yl)-3-methylphenyl)-2-(2-fluoro-6-methyl-4-((R)-3-(trifluoromethyl)morpholino)benzamido)propanoic acid] |  |  | 16.6 | 0.2 |
| Cc1cc(C(F)(F)F)c(-c2ccc(C[C@H](NC(=O)c3c(F)cc(N4CCOC[C@@H]4C(F)(F)F)cc3F)C(=O)O)cc2F)c(=O)n1C [Example 6, (S)-2-(2,6-difluoro-4-((R)-3-(trifluoromethyl)morpholino)benzamido)-3-(4-(1,6-dimethyl-2-oxo-4-(trifluoromethyl)-1,2-dihydropyridin-3-yl)-3-fluorophenyl)propanoic acid] |  |  | 9.9 | 0.3 |
| Cc1cc(N2CCOC[C@@H]2C(F)(F)F)cc(F)c1C(=O)N[C@@H](Cc1ccc(-c2nc(C)c(C)n(C)c2=O)c(Cl)c1)C(=O)O [Example 7, (S)-3-(3-chloro-4-(4,5,6-trimethyl-3-oxo-3,4-dihydropyrazin-2-yl)phenyl)-2-(2-fluoro-6-methyl-4-((R)-3-(trifluoromethyl)morpholino)benzamido)propanoic acid] |  |  | 15.3 | 0.5 |

Further lines, results first:

| EC50 ([1]; Table 2) [nM] | EC50 ([2]; Table 2) [nM] | EC50 ([1]; Table 1) [nM] | EC50 ([2]; Table 1) [nM] | Structure (SMILES) |
| --- | --- | --- | --- | --- |
| 2.3 | 0.6 |  |  | Cc1cc(N2CCOC[C@@H]2C(F)(F)F)cc(F)c1C(=O)N[C@@H](Cc1ccc(-n2c(=O)c3ccncc3n(C)c2=O)c(C(F)(F)F)c1)C(=O)O (atropisomer, axis not shown) [Example 89] |
| 9.7 | 0.7 |  |  | Cc1cc(N2CCOC[C@@H]2C(F)(F)F)cc(F)c1C(=O)N[C@@H](Cc1ccc(-n2c(=O)c3ccncc3n(C)c2=O)c(C(F)(F)F)c1)C(=O)O (atropisomer, axis not shown) [Example 90] |
| 1.3 | 0.2 |  |  | Cc1cc(N2CCOC[C@@H]2C(F)(F)F)cc(F)c1C(=O)N[C@@H](Cc1ccc(-n2c(=O)c3ccncc3n(C)c2=O)c(OC(F)(F)F)c1)C(=O)O (atropisomer, axis not shown) [Example 92] |
| 25.8 | 0.4 |  |  | Cc1cc(N2CCOC[C@@H]2C(F)(F)F)cc(F)c1C(=O)N[C@@H](Cc1ccc(-n2c(=O)c3ccncc3n(C)c2=O)c(OC(F)(F)F)c1)C(=O)O (atropisomer, axis not shown) [Example 93] |
|  |  | 117 | 1.6 | CC[C@@H](Nc1cc(F)c(C(=O)N[C@@H](Cc2ccc(-n3c(=O)c4ccncc4n(C)c3=O)nc2)C(=O)O)c(F)c1)C(F)(F)F [Example 9, (S)-2-(2,6-difluoro-4-(((R)-1,1,1-trifluorobutan-2-yl)amino)benzamido)-3-(6-(1-methyl-2,4-dioxo-1,4-dihydropyrido[3,4-d]pyrimidin-3(2H)-yl)pyridin-3-yl)propanoic acid] |
|  |  | 30.1 | 0.5 | CC[C@@H](Nc1cc(C)c(C(=O)N[C@@H](Cc2ccc(-n3c(=O)c4ccncc4n(C)c3=O)nc2)C(=O)O)c(F)c1)C(F)(F)F [Example 11, (S)-2-(2-fluoro-6-methyl-4-(((R)-1,1,1-trifluorobutan-2-yl)amino)benzamido)-3-(6-(1-methyl-2,4-dioxo-1,4-dihydropyrido[3,4-d]pyrimidin-3(2H)-yl)pyridin-3-yl)propanoic acid] |

From patent US11578069B2, “Compounds for inhibition of α4 β7 integrin” (Gilead Sciences, Inc., priority 2019, dated 2023)
